{"source": "patent US8106203B2", "about": "“Assay methods using chemiluminescent detection of peroxidase” (Lumigen, Inc., priority 2001, dated 2012)", "key": {"HRP [1]": {"biological_target": "T1, HRP (Armoracia rusticana, UniProt P00433)", "T1 sequence (P00433 31-338)": "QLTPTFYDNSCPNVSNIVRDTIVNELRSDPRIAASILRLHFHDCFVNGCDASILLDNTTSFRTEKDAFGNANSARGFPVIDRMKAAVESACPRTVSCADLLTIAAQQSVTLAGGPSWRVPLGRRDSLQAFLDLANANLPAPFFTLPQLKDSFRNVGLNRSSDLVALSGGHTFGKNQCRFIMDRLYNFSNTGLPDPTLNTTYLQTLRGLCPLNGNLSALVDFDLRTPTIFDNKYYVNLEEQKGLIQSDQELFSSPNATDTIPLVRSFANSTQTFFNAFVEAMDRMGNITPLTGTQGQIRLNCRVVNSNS", "test": "Chemiluminescent detection of HRP with compound 14", "assay_type": "biochemical, horseradish", "details": "3×10^−4 M compound 14, pH 8.0, p-hydroxycinnamic acid", "procedure": "Reagent compositions comprising 0.025 M tris buffer, pH 8.0, 2.5 mM urea peroxide, 4 mM p-hydroxycinnamic acid, 0.5 mM EDTA, 0.1% Tween 20 and 3×10^−4 M compound 14 were tested for production of chemiluminescence by reacting triplicate 100 μL aliquots with 10 μL of HRP in the range 1.4×10^−16 to 1.4×10^−20 moles. Light production ensued upon mixing and reached maximum intensity in about 1 min. The relation between chemiluminescence intensity and amount of enzyme is depicted in FIG. 1. For comparison, the relationship between S-B and amount of HRP is also shown for reference compound 1 having the formula:\nThe results for the reference compound were measured 15 minutes after addition of 10 μL of solutions of HRP containing between 1.4×10^−15 and 1.4×10^−19 moles of enzyme to 100 μL of the reagent comprising 0.055 M tris buffer, pH 8.6, 0.25 mM urea peroxide, 0.05 mM p-phenylphenol, 0.5 mM EDTA, 0.0125% Tween 20 and 3.3×10^−4 M of Ref 1."}, "HRP [2]": {"biological_target": "T1, HRP", "test": "Comparison of signal intensity (Example 10): maximum signal with HRP", "assay_type": "biochemical, horseradish", "details": "3×10^−4 M compound, 0.025 M tris pH 8, 2.5 mM urea peroxide, 4 mM p-hydroxycinnamic acid; 3.5×10^−16 moles of HRP", "procedure": "(§1) The maximum signal produced by each of compounds 14, and 27-29 was compared by reacting a 100 μL aliquot of reagent compositions comprising 0.025 M tris buffer, pH 8, 2.5 mM urea peroxide, 4 mM p-hydroxycinnamic acid, 0.5 mM EDTA, 0.1% Tween 20, and 3×10^−4 M of the test compound with 3.5×10^−16 moles of HRP. Each reagent reached maximum light intensity in about 1 minute."}, "HRP [3]": {"biological_target": "T1, HRP", "test": "Comparison of signal intensity (Example 9): chemiluminescence on reaction of reagent with HRP", "assay_type": "biochemical, horseradish", "details": "5×10^−5 M compound, 0.01 M tris pH 8, 0.5 mM urea peroxide, 0.1 mM p-phenylphenol, 0.025% Tween 20; 3.5×10^−16 moles of HRP", "procedure": "Reagent compositions comprising 0.01 M tris buffer, pH 8, 0.5 mM urea peroxide, 0.1 mM p-phenylphenol, […], 0.025% Tween 20, and 5×10^−5 M of each compound in the table below except the compound designated Ref. 1 were tested for production of chemiluminescence by reacting a 100 μL aliquot with 3.5×10^−16 moles of HRP. The reagent formulation for Ref. 1 comprised 0.05 M tris buffer, pH 8.6, 0.25 mM urea peroxide, 0.05 mM p-phenylphenol, 0.5 mM EDTA, 0.0125% Tween 20, and 3.3×10^−4 M Ref. 1. For comparison, data are provided for reference compounds 1 and 2."}, "HRP [4]": {"biological_target": "T1, HRP", "test": "Chemiluminescent detection of HRP with compound 27", "assay_type": "biochemical, horseradish", "details": "3×10^−4 M compound 27, pH 8.0, p-hydroxycinnamic acid", "procedure": "Reagent compositions comprising 0.025 M tris buffer, pH 8.0, 2.5 mM urea peroxide, 4 mM p-hydroxycinnamic acid, 0.5 mM EDTA, 0.1% Tween 20 and 3×10^−4 M compound 27 were tested for production of chemiluminescence by reacting triplicate 100 μL aliquots with 10 μL of HRP in the range 1.4×10^−16 to 1.4×10^−20 moles. Light production ensued upon mixing and reached maximum intensity in about 1 min. The relation between chemiluminescence intensity at 1.5 min and amount of enzyme is depicted in FIG. 2 along with the results for Ref. compound 1 at 15 min as described above."}, "HRP [5]": {"biological_target": "T1, HRP", "test": "Chemiluminescence time profile (Example 12)", "assay_type": "biochemical, horseradish", "details": "3×10^−4 M compound 27, 3.5×10^−16 moles of HRP; compared with reagents of Example 11", "procedure": "Reagent compositions comprising 0.025 M tris buffer, pH 8.0, 2.5 mM urea peroxide, 4 mM p-hydroxy-cinnamic acid, 0.5 mM EDTA, 0.1% Tween 20, and 3×10^−4 M compound 27 were tested for production of chemiluminescence by reacting a 100 μL aliquot with 3.5×10^−16 moles of HRP."}, "HRP-labeled antibody [6]": {"biological_target": "T2, HRP-labeled antibody (Armoracia rusticana, UniProt P00433)", "T2 sequence (P00433 31-338)": "T1 sequence (P00433 31-338)", "test": "Western blot of β-galactosidase on nitrocellulose membrane with compound 46", "assay_type": "biochemical", "details": "1 mM compound 46, nitrocellulose, time points up to 120 min", "procedure": "A western blot assay of β-galactosidase as the test antigen was conducted according to the procedure described in U. K. Laemmli, Nature (London), 227, 680 (1970) using a PVDF membrane. β-Galactosidase standards in the range of 5000-5 pg. The detection reagent containing Compound 1 permitted detection to be performed in under 1 minute.\n(§2) Western blot assays of β-galactosidase were conducted according to Example 13 but using nitrocellulose membrane and a detection reagent comprising 0.025 M tris buffer, pH 8.0, 2.5 mM urea peroxide, 4 mM p-hydroxycinnamic acid, 0.5 mM EDTA, 0.1% Tween 20, and 1 mM compound 46."}, "HRP [7]": {"biological_target": "T1, HRP", "test": "Stability of working solutions by solution assay", "assay_type": "physicochemical, horseradish", "set-up": "key to Activity / Activity (Control): maximum chemiluminescence intensity (arbitrary light units)", "details": "for Activity (Control): fresh reagent from components stored at 4° C.; for Activity: stored working solution", "procedure": "Reagent stability of the working solutions of compound 53 and compound 46 was assessed by preparing the working solution by combining 50 μL aliquots of the two component solutions and storing the mixed solutions at 4° C. or room temperature. The working solution contained 0.025 M tris buffer, pH 8, 2.5 mM urea peroxide, 4 mm p-hydroxycinnamic acid, 0.5 mM EDTA, 0.1% Tween 20, and 0.05 mM of the substrate. Chemiluminescent assays were run with 3.5×10^−16 moles of HRP at 25° C. Maximum intensity results were compared to the values obtained with fresh reagent prepared from the individual components stored at 4° C. […] The composition containing compound 53 was unchanged after four months at 4° C., that containing compound 46 was unchanged after 9 months at 4° C."}, "HRP [8]": {"biological_target": "T1, HRP", "test": "Comparison of signal intensity (Example 17): maximum signal with HRP", "assay_type": "biochemical, horseradish", "details": "1 mM test compound (Formulation 1.0); 3.5×10^−16 moles of HRP", "procedure": "as §1, with “40-51” for “14, and 27-29”, “either 1 mM, 0.3 mM, 0.15 mM or 0.05 mM” for “3×10^−4 M”, “1-3 minutes.” for “about 1 minute.”"}, "HRP-labeled antibody [9]": {"biological_target": "T2, HRP-labeled antibody", "test": "Stability of working solution by western blot assay", "assay_type": "physicochemical", "details": "stored 1 year at 4° C.", "procedure": "as §2\nA further measure of the long term stability of a working solution containing compound 46 was provided by serial western blot assays over a 1 year period according to the procedure in example 18. FIG. 9 depicts the performance comparison in the western blot protocol described above using fresh vs. 1 year old working solutions."}, "peroxidase": {"system": "peroxidase", "details": "reacted with HRP; disclosed in U.S. Pat. No. 5,922,558; cited from earlier work"}}}
{"smiles": "CSC(SCCCS(=O)(=O)[O-])=C1c2ccccc2N(c2ccccc2)c2ccccc21.[Na+]", "note": "[Compound 14]", "values": [{"measurement": "time to reach maximum intensity", "setting": "HRP [1]", "value": "about 1 min"}, {"measurement": "Signal/Background", "setting": "HRP [2]", "value": 2491}, {"measurement": "Signal/Background", "setting": "HRP [3]", "value": 688}]}
{"smiles": "CSC(SCCCS(=O)(=O)[O-])=C1c2ccccc2N(Cc2ccccc2)c2ccccc21.[Na+]", "note": "[Compound 27]", "values": [{"measurement": "Signal/Background", "setting": "HRP [2]", "value": 6933}, {"measurement": "time to reach maximum intensity", "setting": "HRP [4]", "value": "about 1 min"}, {"measurement": "Signal/Background", "setting": "HRP [3]", "value": 533}, {"measurement": "relative chemiluminescence time profile", "setting": "HRP [5]", "value": "rapid generation of chemiluminescence and higher signal level"}]}
{"smiles": "O=S(=O)([O-])CCCOC1CSC(=C2c3ccccc3N(c3ccccc3)c3ccccc32)SC1.[Na+]", "note": "(stereo not shown) [Compound 46]", "values": [{"measurement": "detection of β-gal", "setting": "HRP-labeled antibody [6]", "value": "excellent sensitivity"}, {"measurement": "% Rel. Activity (Control)", "setting": "HRP [7]; 2 months", "value": 101.6, "unit": "%"}, {"measurement": "% Rel. Activity (Control)", "setting": "HRP [7]; 3.5 months", "value": 100.2, "unit": "%"}, {"measurement": "% Rel. Activity (Control)", "setting": "HRP [7]; 4 months", "value": 100.0, "unit": "%"}, {"measurement": "% Rel. Activity (Control)", "setting": "HRP [7]; 6 months", "value": 97.0, "unit": "%"}, {"measurement": "% Rel. Activity (Control)", "setting": "HRP [7]; 9 months", "value": 99.3, "unit": "%"}, {"measurement": "working solution composition after storage", "setting": "HRP [7]; 9 months at 4° C.", "value": "unchanged"}, {"measurement": "% Rel. Activity (Control)", "setting": "HRP [7]; 12 months", "value": 90.9, "unit": "%"}, {"measurement": "Activity (Control)", "setting": "HRP [7]; 2 months", "value": 610}, {"measurement": "Activity (Control)", "setting": "HRP [7]; 3.5 months", "value": 613}, {"measurement": "Activity (Control)", "setting": "HRP [7]; 4 months", "value": 600}, {"measurement": "Activity (Control)", "setting": "HRP [7]; 6 months", "value": 660}, {"measurement": "Activity (Control)", "setting": "HRP [7]; 9 months", "value": 720}, {"measurement": "Activity (Control)", "setting": "HRP [7]; 12 months", "value": 660}, {"measurement": "Activity", "setting": "HRP [7]; 2 months", "value": 620}, {"measurement": "Activity", "setting": "HRP [7]; 3.5 months", "value": 614}, {"measurement": "Activity", "setting": "HRP [7]; 4 months", "value": 600}, {"measurement": "Activity", "setting": "HRP [7]; 6 months", "value": 640}, {"measurement": "Activity", "setting": "HRP [7]; 9 months", "value": 715}, {"measurement": "Activity", "setting": "HRP [7]; 12 months", "value": 600}, {"measurement": "reagent performance on storage of working solution", "setting": "HRP [7]; up to three weeks at room temperature, 0.05 mM substrate", "value": "no deterioration of reagent performance"}, {"measurement": "Signal/Background", "setting": "HRP [8]", "value": 13000}, {"measurement": "western blot performance, fresh vs. 1 year old working solution", "setting": "HRP-labeled antibody [9]", "value": "no diminution in blotting assay sensitivity"}]}
{"smiles": "COC(Sc1ccccc1)=C1c2ccccc2N(C)c2ccccc21", "note": "[drawing 18]", "values": [{"measurement": "time to reach maximum chemiluminescence intensity", "setting": "peroxidase", "value": 7, "unit": "min"}]}
